Here are results for 7 compounds from BindingDB's records for patent US10513534 (IDENIX PHARMACEUTICALS LLC; CENTRE NATIONAL DE LA RECHERCHE …, 2019).

The first experiment deals with T1, Genome polyprotein (Hepatitis C virus genotype 1b (isolate Japanese), UniProt P26662). In words: HCV Polymerase Enzyme Assay. An excerpt:
Test compounds in the form of nucleoside triphosphates were examined for inhibitory activity against purified HCV polymerase in a standard assay. Bacterial expression constructs encoding the approximately 65 kDa HCV genotype 1b NS5B protein were used to generate recombinant HCV polymerases (with a deletion of the 21 carboxy terminal amino acids). Both the wild-type genotype 1b protein and protein containing the S282T mutation were expressed and purified for use in the enzymatic activity assay.The enzymatic activity assay measured the inhibitory effect of increasing concentrations of test compound on the incorporation of α-[33P]-labeled nucleotide into trichloroacetic acid-precipitable material. Recombinant polymerase and synthetic RNA template were combined in reaction buffer containing ribonucleoside triphosphates, α-[33P]-labeled nucleotide and eight concentrations of test compound in three-fold dilutions. Reactions were incubated for two hours at 30° C.Reactions were terminated by the addition of ice-cold trichloroacetic acid and sodium pyrophosphate to promote precipitation of newly-synthesized ribonucleic acid. Precipitable material from the reactions was collected by filtration onto 96-well filter plates, washed extensively with water, and quantified by liquid scintillation.The inhibitory activity of test compounds was determined by fitting results to dose-response curves using XLfit software.
As usually defined, the IC50 is the concentration that gives 50% inhibition. `C[C@@]1(Cl)[C@H](O)[C@@H](COP(=O)(O)OP(=O)(O)OP(=O)(O)O)O[C@H]1n1cnc2c(N)ncnc21` [US10513534, Compound 406] displayed an IC50 of under 250 nM.

`C[C@@]1(Cl)[C@H](O)[C@@H](COP(=O)(O)OP(=O)(O)OP(=O)(O)O)O[C@H]1n1ccc(=O)[nH]c1=O` [US10513534, Compound 401]: the IC50 was under 250 nM.

For the compound `C[C@@]1(Cl)[C@H](O)[C@@H](COP(=O)(O)OP(=O)(O)OP(=O)(O)O)O[C@H]1n1cnc2c(N)nc(Cl)nc21` [US10513534, Compound 404], the IC50 is over 10000 nM.

`C[C@@]1(Cl)[C@H](O)[C@@H](COP(=O)(O)OP(=O)(O)OP(=O)(O)O)O[C@H]1n1ccc(N)nc1=O` [US10513534, Compound 402] showed an IC50 of 5500 nM.

A further experiment addresses T1, Genome polyprotein.
Assay: not given
Compound `C[C@@]1(Cl)[C@H](O)[C@@H](COP(=O)(O)OP(=O)(O)OP(=O)(O)O)O[C@H]1n1cc(F)c2c(N)ncnc21` [US10513534, Compound 407] yielded a half-inhibitory concentration (IC50) of under 250 nM.

`C[C@@]1(Cl)[C@H](O)[C@@H](COP(=O)(O)OP(=O)(O)OP(=O)(O)O)O[C@H]1n1cnc2c(=O)[nH]c(N)nc21` [US10513534, Compound 405] had an IC50 of under 250 nM.

In turn, `C[C@@]1(Cl)[C@H](O)[C@@H](COP(=O)(O)OP(=O)(O)OP(=O)(O)O)O[C@H]1n1ccc2c(N)ncnc21` [US10513534, Compound 403] displayed an IC50 of under 250 nM.

In the case of `C[C@@]1(Cl)[C@H](O)[C@@H](COP(=O)(O)OP(=O)(O)OP(=O)(O)O)O[C@H]1n1cnc2c(N)nc(Cl)nc21` [US10513534, Compound 404], the IC50 is over 10000 nM.
